# Laboratory results reported in US10206911B2, “Androgen receptor variants and methods for making and using” (MEMORIAL SLOAN-KETTERING CANCER CENTER, priority 2012, dated 2019).
# Residue numbers refer to the chain shown, from its start. “Also recorded” adds a separate entry of the source.
# What was measured:
# [1] = tested on: CWR22PC cells expressing AR WT; assay: CWR22PC cell viability (CellTiterGLO); format: cell-based, human; details: full serum media; days 1, 4, and 7
# Procedure: […]. […] CellTiterGLO assay was performed on days 1, 4, and 7 to measure cell viability. […] CellTiterGLO assay was performed on days 1, 4, and 7 to measure cell viability.
# […]. […] CellTiterGLO assay was performed on days 1, 4, and 7 to determine cell viability. RLU=relative light units.
# [2] = tested on: VCaP cells overexpressing AR WT; assay: VCaP growth assay (CellTiter-GLO); format: cell-based, human; details: full-serum containing media, 10 μM
# [3] = tested on: DU145 (an AR null human prostate cancer cell line); assay: DU145 cell viability (CellTiterGLO); format: cell-based; details: 10 μM, full serum containing media
# Procedure: DU145 cells were cultured in full serum containing media with 10 uM of the indicated antiandrogens. CellTiterGLO assay was performed on days 0, 3, and 6 to determine cell viability. RLU=relative light units.
# [4] = tested on: CWR22PC cells expressing AR F876L; assay: CWR22PC cell viability (CellTiterGLO); format: cell-based, human; details: full serum media; days 1, 4, and 7
# Procedure: CellTiterGLO assay was performed on days 1, 4, and 7 to measure cell viability. […] CellTiterGLO assay was performed on days 1, 4, and 7 to measure cell viability.
# CellTiterGLO assay was performed on days 1, 4, and 7 to determine cell viability. RLU=relative light units.
# [5] = tested on: VCaP cells overexpressing AR F876L; assay: VCaP growth assay (CellTiter-GLO); format: cell-based, human; details: full-serum containing media, 10 μM
# AR WT = biological target: T1, AR WT (Homo sapiens, UniProt P10275, DEL79-80/DUP473-473); assay: EGFP reporter assay of AR activity, LNCaP-Pb.PSE.EGFP cells, flow cytometry; format: cell-based; details: 10 μM, 4 days of treatment
# T1 construct: expressed in transfected cells; host or cells: LNCaP-Pb.PSE.EGFP (pantropic retroviral infection, blasticidin selection)
# T1 sequence (P10275 with tags, fused parts or gaps DEL79-80/DUP473-473): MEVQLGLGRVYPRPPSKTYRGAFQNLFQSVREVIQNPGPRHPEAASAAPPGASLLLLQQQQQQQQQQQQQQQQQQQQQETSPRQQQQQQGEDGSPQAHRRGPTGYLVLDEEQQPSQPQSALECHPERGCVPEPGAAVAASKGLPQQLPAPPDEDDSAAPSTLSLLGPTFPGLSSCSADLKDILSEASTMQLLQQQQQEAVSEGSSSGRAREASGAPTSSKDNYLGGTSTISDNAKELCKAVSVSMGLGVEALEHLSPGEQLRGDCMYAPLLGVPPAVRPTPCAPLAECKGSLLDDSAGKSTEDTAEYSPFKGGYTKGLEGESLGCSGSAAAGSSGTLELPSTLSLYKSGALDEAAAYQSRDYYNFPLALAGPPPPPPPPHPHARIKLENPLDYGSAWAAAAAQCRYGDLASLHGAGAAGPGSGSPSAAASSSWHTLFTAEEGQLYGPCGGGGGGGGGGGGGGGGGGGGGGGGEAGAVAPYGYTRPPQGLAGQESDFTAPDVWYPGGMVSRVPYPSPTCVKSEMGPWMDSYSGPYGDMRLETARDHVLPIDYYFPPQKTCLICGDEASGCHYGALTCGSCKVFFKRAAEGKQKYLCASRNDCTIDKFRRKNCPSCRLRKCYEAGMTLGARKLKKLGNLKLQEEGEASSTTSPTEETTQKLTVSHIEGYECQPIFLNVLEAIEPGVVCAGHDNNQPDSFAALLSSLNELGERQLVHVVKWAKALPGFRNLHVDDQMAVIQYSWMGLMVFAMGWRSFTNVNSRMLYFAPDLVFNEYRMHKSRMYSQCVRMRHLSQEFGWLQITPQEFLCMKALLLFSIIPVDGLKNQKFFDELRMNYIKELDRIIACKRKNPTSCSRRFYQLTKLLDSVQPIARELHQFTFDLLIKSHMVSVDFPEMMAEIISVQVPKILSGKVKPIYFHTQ
# Source text: (§1) This clone was used for all flow cytometry assays and for the FACS-based resistance screens.
# AR F876L = biological target: T2, AR F876L (Homo sapiens, UniProt P10275, DEL79-80/DUP473-473/F877L); assay: as above; format: cell-based; details: 10 μM, 4 days of treatment
# T2 construct: expressed in transfected cells
# T2 sequence (P10275 with tags, fused parts or gaps DEL79-80/DUP473-473/F877L): T1 sequence (P10275 with tags, fused parts or gaps DEL79-80/DUP473-473) with F876L
# Source text: as §1
# [6] = tested on: VCaP cells expressing AR WT and AR F876L; assay: Western blot of AR signaling and PARP cleavage in VCaP cells; format: cell-based, human; details: 10 μM, 4 days, media containing FBS
# Procedure: Fetal bovine serum (FBS) and charcoal-stripped, dextran-treated fetal bovine serum (CSS) were purchased from Omega Scientific. […] Serial dilutions of all drugs were made using DMSO. Antibodies used for immunoblot assays were b-actin (AC-15, Sigma) PARP (#9543; Cell Signaling Technology), FKBP5 (IHC-00289, Bethyl), b-tubulin (D-10) and androgen receptor (N-20) (both from Santa Cruz Biotechnology). Protein lysates were prepared in M-PER protein extraction reagent (Pierce) or 1% SDS buffer. The chromatin immunoprecipitation assay was conducted using a kit (Upstate) with an antibody for androgen receptor (PG-21, Upstate). Nontarget and mouse AR siRNA pools were from the ON-TARGETplus collection (Dharmacon).
compound,measurement,setting,value
"CNC(=O)c1ccc(N2C(=S)N(c3ccc(C#N)c(C(F)(F)F)c3)C(=O)C23CCCC(C)(C)C3)cc1F (racemic) [(±)-DR103, 4-(3-(4-cyano-3-(trifluoromethyl)phenyl)-7,7-dimethyl-4-oxo-2-thioxo-1,3-diazaspiro[4.5]decan-1-yl)-2-fluoro-N-methylbenzamide]","Growth/viability of CWR22PC cells, AR WT",[1],growth inhibition
same,"Growth of VCaP cells, AR WT",[2],inhibited the growth
same,"Growth of VCaP cells, AR WT",[2]; listed as (+)-DR103,effectively inhibits the growth of both models
same,Proliferation of DU145 cells,[3]; listed as (+)-DR103,did not impact the proliferation
same,Proliferation of DU145 cells,[3]; listed as DR103,no significant growth inhibition
same,Growth/viability of CWR22PC cells expressing AR F876L,[4],growth inhibition
same,Growth of VCaP cells overexpressing AR F876L,[5],inhibited the growth
same,Growth of VCaP cells overexpressing AR F876L,[5]; listed as (+)-DR103,effectively inhibits the growth of both models
same,Effect on transcriptional activity of AR WT in EGFP reporter assay (agonism or antagonism),AR WT,effectively antagonized
same,Effect on transcriptional activity of AR F876L in EGFP reporter assay (agonism or antagonism),AR F876L,effectively antagonized; also recorded: potently inhibited
same,Endogenous AR signaling (Western blot),[6],inhibited endogenous AR signaling
same,PARP cleavage (Western blot),[6],induced PARP cleavage
same,Endogenous AR signaling (Western blot),[6]; listed as DR103,efficiently inhibits AR signaling
same,PARP cleavage (Western blot),[6]; listed as DR103,induces PARP cleavage
